From patent US20250136568A1, “FUSED HETEROCYCLIC COMPOUNDS AS PI3KALPHA INHIBITORS” (Nanjing Zenshine Pharmaceuticals Co., Ltd., priority 2021, published 2025)
Where two headings read alike, the source gives them in different places.

Columns and labels:
[1] = test system: PI3Kα H1047R mutation cell line T-47D; assay: Cell Proliferation IC50 Assay (CellTiter-Glo), T-47D; assay type: cell-based; details: T47D (H1047R), 72 hours, CellTiter-Glo, read-out: IC50 (μM) T47D
Description: (§1) PI3Kα H1047R mutation cell line T-47D and MDA-MB-453, E545K mutation cell line MDA-MB-361 and PI3Kα wide type cell line SK-BR-3 were purchased from Cobioer Biotech (cat. no CBP60397, CBP60386, CBP60383 and CBP60413 respectively). The CellTiter-Glo Direct Cell Proliferation Assay Kit was purchased from Prornega (cat. No. G7573)
(§2) For cell proliferation assay in each cell line: • a. Prepare complete medium (R PMI 1640, DMEM or McCoys): Add FBS and appropriate additives according to the information sheet provided by the vendor. Mix gently. • b. Prepare single cell suspension and count the cell numbers and adjust cells to appropriate density. • c. Add 80 μL of cell suspension to 96-well opaque-walled clear bottom plates according to the planned plate layout and place the plates in the CO2 incubator overnight. • d. Prepare intermediate plate: 10 μl of diluted test compounds or staurosporine solution (200×) is added to a 96 deep well plate. Then 390 μl of culture medium without FBS is added to the respective wells. • e. Transfer 20 μL of the solutions from the above intermediate plate to the wells of the plate prepared containing 80 μL of the culture medium and cells. The total dilution is 200 folds. • f. The cells were then incubated at 5% CO2, 37° C. for 72 hours. • g. Equilibrate the plate and its contents to room temperature for approximately 30 minutes. • h. Add 100 μL of CellTiter-Glo reagent to the assay plate • i. Mix contents for 10 minutes on an orbital shaker to induce cell lysis. • j. Allow the plate to incubate at room temperature for 10 minutes to stabilize luminescent signal, • k. Paste the clear bottom with white back seal and record luminescence with Varioskan LUX plate reader.
(§3) Inhibition % and IC50 value were calculated by the formula described below: […]

[2] = test system: PI3Kα wide type cell line SK-BR-3; assay: Cell Proliferation IC50 Assay (CellTiter-Glo), SK-BR-3; assay type: cell-based; details: SK-BR-3 (PI3Kα wild type), 72 hours, CellTiter-Glo, read-out: IC50 (μM) SK-BR-3
Description: as §1, §2, §3

IC50 ([1]; Homo sapiens, T47D, 72 h) | IC50 ([2]; Homo sapiens) | IC50 [1] | IC50 [2] | SMILES
7.24 µM | > 10 µM | – | – | Cc1cc([C@H](C)Nc2ccccc2C(=O)O)c2oc(-c3ccc4nn(C)cc4c3)c(C)c(=O)c2c1 (single isomer, unassigned) [Example 49B]
0.99 µM | > 10 µM | – | – | Cc1cc([C@H](C)Nc2ccccc2C(=O)O)c2oc(-c3ccc(-c4cnn(C)c4)cc3)cc(=O)c2c1 (single isomer, unassigned) [Example 95B]
0.12 µM | > 10 µM | – | – | COC(=O)N1CCN(c2ccc(-c3oc4c([C@@H](C)Nc5ccccc5C(=O)O)cc(C)cc4c(=O)c3C)cn2)CC1 (single isomer, unassigned) [Example 155A]
5.06 µM | > 10 µM | – | – | COC(=O)N1CCN(c2ccc(-c3oc4c([C@H](C)Nc5ccccc5C(=O)O)cc(C)cc4c(=O)c3C)cn2)CC1 (single isomer, unassigned) [Example 155B]
0.065 µM | > 10 µM | – | – | Cc1cc([C@@H](C)Nc2ccccc2C(=O)O)c2oc(-c3ccc(OCC4CCCN4C)cc3)c(C)c(=O)c2c1 (single isomer, unassigned) [Example 172A]
– | – | 0.063 µM | > 10 µM | Cc1cc([C@@H](C)Nc2ccccc2C(=O)O)c2oc(-c3ccc(OCC4CCCN4C)cc3)c(C)c(=O)c2c1 (single isomer, unassigned) [Example 172B]
1.54 µM | > 10 µM | – | – | Cc1cc(C(C)Nc2ccccc2C(=O)O)c2oc(-c3ccc4c(c3)CNC4=O)cc(=O)c2c1 (stereo not shown) [Example 5, 2-((1-(6-methyl-4-oxo-2-(1-oxoisoindolin-5-yl)-4H-chromen-8-yl)ethyl)amino)benzoic acid]
2.56 µM | > 10 µM | – | – | Cc1cc(C(C)Nc2ccccc2C(=O)O)c2oc(C3CCN(C(C)C(F)(F)F)CC3)cc(=O)c2c1 (stereo not shown) [Example 16, 2-((1-(6-methyl-4-oxo-2-(1-(1,1,1-trifluoropropan-2-yl)piperidin-4-yl)-4H-chromen-8-yl)ethyl)amino)benzoic acid]
2.07 µM | > 10 µM | – | – | Cc1cc(C(C)Nc2ccccc2C(=O)O)c2oc(C3=CCN(C(C)C(F)(F)F)CC3)cc(=O)c2c1 (stereo not shown) [Example 17, 2-((1-(6-methyl-4-oxo-2-(1-(1,1,1-trifluoropropan-2-yl)-1,2,3,6-tetrahydropyridin-4-yl)-4H-chromen-8-yl)ethyl)amino)benzoic acid]
0.9 µM | > 10 µM | – | – | Cc1cc(C(C)Nc2ccccc2C(=O)O)c2oc(-c3ccccn3)cc(=O)c2c1 (stereo not shown) [Example 31, 2-((1-(6-methyl-4-oxo-2-(pyridin-2-yl)-4H-chromen-8-yl)ethyl)amino)benzoic acid]
0.2 µM | > 10 µM | – | – | Cc1cc(C(C)Nc2ccccc2C(=O)O)c2oc(-c3ccc4cnccc4c3)cc(=O)c2c1 (stereo not shown) [Example 36, 2-((1-(2-(isoquinolin-6-yl)-6-methyl-4-oxo-4H-chromen-8-yl)ethyl)amino)benzoic acid]
2.51 µM | > 10 µM | – | – | Cc1cc(C(C)Nc2ccccc2C(=O)O)c2oc(-c3cnn(C4COC4)c3)cc(=O)c2c1 (stereo not shown) [Example 40, 2-((1-(6-methyl-2-(1-(oxetan-3-yl)-1H-pyrazol-4-yl)-4-oxo-4H-chromen-8-yl)ethyl)amino)benzoic acid]
1.43 µM | > 10 µM | – | – | Cc1cc(C(C)Nc2ccccc2C(=O)O)c2oc(-c3ccc(N4CCNCC4)cc3)cc(=O)c2c1 (stereo not shown) [Example 41, 2-((1-(6-methyl-4-oxo-2-(4-(piperazin-1-yl)phenyl)-4H-chromen-8-yl)ethyl)amino)benzoic acid]
0.28 µM | > 10 µM | – | – | Cc1cc(C(C)Nc2ccccc2C(=O)O)c2oc(-c3ccc(N4CCC(F)(F)CC4)cc3)cc(=O)c2c1 (stereo not shown) [Example 43, 2-((1-(2-(4-(4,4-difluoropiperidin-1-yl)phenyl)-6-methyl-4-oxo-4H-chromen-8-yl)ethyl)amino)benzoic acid]
